From PubChem BioAssay AID248 (DTP/NCI, 2004)
Values joined by “and” are separate entries in the source; they are usually repeats but may differ in a detail not shown here. Equal entries are not always repeated. Toxic doses and inconclusive results are not listed.

Test system: L1210 leukemia ip in BDF1 mice, survival T/C
Assay: NCI In Vivo Anticancer Drug Screen. Data for tumor model L1210 Leukemia (intraperitoneal) in B6D2F1 (BDF1) mice
Conditions: endpoint: mean survival time, higher = longer survival
Outline: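 Transplantable tumor model; survival measured in treated vs vehicle control mice. Value = treated/control.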

[1] = dose: 100.0 mg/kg/injection, schedule: Q01DX001 (ip), vehicle: other
[2] = dose: 200.0 mg/kg/injection, schedule: Q01DX001 (ip), vehicle: other
[3] = dose: 400.0 mg/kg/injection, schedule: Q01DX001 (ip), vehicle: other
[4] = dose: 100.0 mg/kg/injection, schedule: Q01DX009 (ip), vehicle: saline with Tween-80
[5] = dose: 100.0 mg/kg/injection, schedule: Q01DX009 (ip), vehicle: Klucel (hydroxypropylcellulose) (HPC)
[6] = dose: 200.0 mg/kg/injection, schedule: Q01DX009 (ip), vehicle: Klucel (hydroxypropylcellulose) (HPC)
[7] = dose: 400.0 mg/kg/injection, schedule: Q01DX009 (ip), vehicle: Klucel (hydroxypropylcellulose) (HPC)
[8] = dose: 100.0 mg/kg/injection, schedule: Q04DX002 (ip), vehicle: saline with Tween-80
[9] = dose: 200.0 mg/kg/injection, schedule: Q04DX002 (ip), vehicle: saline with Tween-80
[10] = dose: 400.0 mg/kg/injection, schedule: Q04DX002 (ip), vehicle: saline with Tween-80
[11] = dose: 100.0 mg/kg/injection, schedule: Q01DX001 (ip), vehicle: saline
[12] = dose: 200.0 mg/kg/injection, schedule: Q01DX001 (ip), vehicle: saline
[13] = dose: 400.0 mg/kg/injection, schedule: Q01DX001 (ip), vehicle: saline
[14] = dose: 100.0 mg/kg/injection, schedule: Q04DX003 (ip), vehicle: Klucel (hydroxypropylcellulose) (HPC)
[15] = dose: 200.0 mg/kg/injection, schedule: Q04DX003 (ip), vehicle: Klucel (hydroxypropylcellulose) (HPC)
[16] = dose: 400.0 mg/kg/injection, schedule: Q04DX003 (ip), vehicle: Klucel (hydroxypropylcellulose) (HPC)
[17] = dose: 100.0 mg/kg/injection, schedule: Q01DX001 (ip), vehicle: carboxymethylcellulose (CMC)
[18] = dose: 400.0 mg/kg/injection, schedule: Q01DX001 (ip), vehicle: carboxymethylcellulose (CMC)
[19] = dose: 100.0 mg/kg/injection, schedule: Q04DX003 (ip), vehicle: saline with Tween-80
[20] = dose: 200.0 mg/kg/injection, schedule: Q01DX009 (ip), vehicle: saline with Tween-80
[21] = dose: 200.0 mg/kg/injection, schedule: Q04DX003 (ip), vehicle: saline with Tween-80
[22] = dose: 400.0 mg/kg/injection, schedule: Q01DX009 (ip), vehicle: saline with Tween-80
[23] = dose: 400.0 mg/kg/injection, schedule: Q04DX003 (ip), vehicle: saline with Tween-80
[24] = dose: 25.0 mg/kg/injection, schedule: Q01DX009 (ip), vehicle: Klucel (hydroxypropylcellulose) (HPC)
[25] = dose: 50.0 mg/kg/injection, schedule: Q01DX009 (ip), vehicle: Klucel (hydroxypropylcellulose) (HPC)
[26] = dose: 100.0 mg/kg/injection, schedule: Q01DX001 (ip), vehicle: Klucel (hydroxypropylcellulose) (HPC)
[27] = dose: 200.0 mg/kg/injection, schedule: Q01DX001 (ip), vehicle: Klucel (hydroxypropylcellulose) (HPC)

Cn1ncc2c(Cl)ncnc21
T/C [1]: 113 % of control | T/C [2]: 94 % of control | T/C [3]: 102 % of control

COc1ccc(O)c(C=O)c1
T/C [4]: 108 % of control

COc1ccc(-c2cc(-c3ccccc3)c3ccccc3n2)c(OC)c1OC
T/C [5]: 100 % of control | T/C [6]: 90 % of control | T/C [7]: 90 % of control

O=C1CCC(Cc2cccc3ccccc23)N1 (stereo not given)
T/C [8]: 97 % of control | T/C [9]: 91 % of control | T/C [10]: 94 % of control

C=C1C(=O)O[C@@H]2[C@H]3O[C@]3(C)CCC=C(C)CC[C@@H]12
T/C (dose: 6.25 mg/kg/injection, schedule: Q01DX009 (ip), vehicle: alcohol): 97 % of control | T/C (dose: 12.5 mg/kg/injection, schedule: Q01DX009 (ip), vehicle: alcohol): 103 % of control | T/C (dose: 25.0 mg/kg/injection, schedule: Q01DX009 (ip), vehicle: alcohol): 95 % of control

CCCNC(=O)Nc1ccccc1OC
T/C (dose: 100.0 mg/kg/injection, schedule: Q04DX002 (ip), vehicle: Klucel (hydroxypropylcellulose) (HPC)): 97 % of control | T/C (dose: 200.0 mg/kg/injection, schedule: Q04DX002 (ip), vehicle: Klucel (hydroxypropylcellulose) (HPC)): 87 % of control | T/C (dose: 400.0 mg/kg/injection, schedule: Q04DX002 (ip), vehicle: Klucel (hydroxypropylcellulose) (HPC)): 94 % of control

CCCCCCCCCCCC(c1ccccc1)[N+](C)(C)Cc1ccccc1 (stereo not given)
T/C (dose: 0.25 mg/kg/injection, schedule: Q01DX015 (ip), vehicle: saline): 108 % of control | T/C (dose: 0.5 mg/kg/injection, schedule: Q01DX015 (ip), vehicle: saline): 103 % of control | T/C (dose: 1.0 mg/kg/injection, schedule: Q01DX015 (ip), vehicle: saline): 115 % of control | T/C (dose: 2.0 mg/kg/injection, schedule: Q01DX015 (ip), vehicle: saline): 114 % of control | T/C (dose: 2.5 mg/kg/injection, schedule: Q01DX001 (ip), vehicle: carboxymethylcellulose (CMC)): 93 % of control

OCC1OC(n2cncn2)C(O)C1O (stereo not given)
T/C (dose: 100.0 mg/kg/injection, schedule: Q01DX005 (ip), vehicle: saline): 102 % of control and 111 % of control

O=C(O)C1OC(n2cc(I)c(=O)[nH]c2=O)CC1O (stereo not given)
T/C [11]: 107 % of control | T/C [12]: 103 % of control | T/C [13]: 100 % of control

c1cc(N2CCOCC2)ccc1Cc1ccc(N2CCOCC2)cc1
T/C [5]: 102 % of control | T/C [14]: 93 % of control | T/C [6]: 109 % of control | T/C [15]: 101 % of control | T/C [16]: 93 % of control

O=C1C=CC(=Nc2ccc(O)c3ncccc23)c2cccnc21
T/C [1]: 104 % of control and 114 % of control | T/C [2]: 106 % of control and 108 % of control | T/C [3]: 102 % of control

COc1cc([N+](=O)[O-])c2nc(Cl)ccc2c1
T/C [17]: 100 % of control | T/C (dose: 200.0 mg/kg/injection, schedule: Q01DX001 (ip), vehicle: carboxymethylcellulose (CMC)): 88 % of control | T/C [18]: 97 % of control

CCOc1cc(/C=N/NC(=O)C(O)C(O)C(O)C(O)CO)ccc1O (stereo not given)
T/C [4]: 98 % of control and 103 % of control | T/C [8]: 100 % of control and 90 % of control | T/C [19]: 95 % of control | T/C [20]: 95 % of control and 91 % of control | T/C [9]: 108 % of control and 116 % of control | T/C [21]: 95 % of control | T/C [22]: 88 % of control and 90 % of control | T/C [10]: 90 % of control and 91 % of control | T/C [23]: 93 % of control

CC(=O)NC(C)C(C)C (stereo not given)
T/C (dose: 100.0 mg/kg/injection, schedule: Q04DX003 (ip), vehicle: saline): 94 % of control | T/C (dose: 200.0 mg/kg/injection, schedule: Q04DX003 (ip), vehicle: saline): 107 % of control | T/C (dose: 400.0 mg/kg/injection, schedule: Q04DX003 (ip), vehicle: saline): 104 % of control

COc1ccc(N2C(=O)C3C(C2=O)C2c4ccccc4C3C3CCCCN32)cc1 (stereo not given)
T/C (dose: 75.0 mg/kg/injection, schedule: Q01DX001 (ip), vehicle: other): 103 % of control

O=C(c1ccccc1)C(Cl)c1ccccc1 (stereo not given)
T/C [24]: 105 % of control | T/C [25]: 111 % of control | T/C [5]: 107 % of control

CC1=CC(=O)C2COc3c2c1cc1c(C)cc(=O)n(C)c31 (stereo not given)
T/C (dose: 50.0 mg/kg/injection, schedule: Q04DX003 (ip), vehicle: Klucel (hydroxypropylcellulose) (HPC)): 97 % of control | T/C [26]: 95 % of control | T/C [14]: 113 % of control | T/C [27]: 95 % of control | T/C [15]: 97 % of control | T/C (dose: 400.0 mg/kg/injection, schedule: Q01DX001 (ip), vehicle: Klucel (hydroxypropylcellulose) (HPC)): 97 % of control

N#CCCCCC(=O)c1ccc(O)cc1O
T/C (dose: 50.0 mg/kg/injection, schedule: Q01DX001 (ip), vehicle: Klucel (hydroxypropylcellulose) (HPC)): 97 % of control | T/C [26]: 105 % of control | T/C [27]: 101 % of control

CCP(=S)(CC)CCCCP(=S)(CC)CC
T/C [4]: 94 % of control | T/C [20]: 89 % of control | T/C [22]: 86 % of control

CCC(C)C(NC(C)=O)C(=O)O (stereo not given)
T/C [8]: 102 % of control | T/C [14]: 88 % of control | T/C [9]: 94 % of control | T/C [15]: 91 % of control | T/C [10]: 102 % of control | T/C [16]: 89 % of control

N#CCCC(=O)c1ccncc1
T/C [19]: 96 % of control | T/C [21]: 107 % of control | T/C [23]: 104 % of control

O=NN(CCCl)C(=O)NCC1CCC(CNC(=O)N(CCCl)N=O)CC1 (stereo not given)
T/C (dose: 6.2 mg/kg/injection, schedule: Q01DX009 (ip), vehicle: carboxymethylcellulose (CMC)): 113 % of control | T/C (dose: 12.5 mg/kg/injection, schedule: Q01DX009 (ip), vehicle: carboxymethylcellulose (CMC)): 111 % of control | T/C [24]: 101 % of control | T/C (dose: 25.0 mg/kg/injection, schedule: Q01DX009 (ip), vehicle: carboxymethylcellulose (CMC)): 122 % of control | T/C [25]: 98 % of control | T/C (dose: 53.0 mg/kg/injection, schedule: Q01DX001 (ip), vehicle: carboxymethylcellulose (CMC)): 117 % of control | T/C (dose: 80.0 mg/kg/injection, schedule: Q01DX001 (ip), vehicle: carboxymethylcellulose (CMC)): 117 % of control | T/C [5]: 109 % of control | T/C (dose: 177.0 mg/kg/injection, schedule: Q01DX001 (ip), vehicle: carboxymethylcellulose (CMC)): 150 % of control | T/C (dose: 177.0 mg/kg/injection, schedule: Q01DX009 (ip), vehicle: carboxymethylcellulose (CMC)): 278 % of control | T/C (dose: 266.0 mg/kg/injection, schedule: Q01DX001 (ip), vehicle: carboxymethylcellulose (CMC)): 225 % of control | T/C (dose: 266.0 mg/kg/injection, schedule: Q01DX009 (ip), vehicle: carboxymethylcellulose (CMC)): 188 % of control | T/C [18]: 275 % of control | T/C (dose: 400.0 mg/kg/injection, schedule: Q01DX009 (ip), vehicle: carboxymethylcellulose (CMC)): 103 % of control | T/C (dose: 600.0 mg/kg/injection, schedule: Q01DX001 (ip), vehicle: carboxymethylcellulose (CMC)): 250 % of control

CC(=O)CC(=O)Nc1ccc(C(=O)O)c(O)c1
T/C [5]: 93 % of control | T/C [6]: 87 % of control | T/C [7]: 93 % of control

Cc1ccc(S(=O)(=O)OCCN(CCOS(=O)(=O)c2ccc(C)cc2)c2cccc(F)c2)cc1
T/C (dose: 50.0 mg/kg/injection, schedule: Q01DX001 (ip), vehicle: carboxymethylcellulose (CMC)): 101 % of control and 114 % of control | T/C (dose: 90.0 mg/kg/injection, schedule: Q01DX001 (ip), vehicle: carboxymethylcellulose (CMC)): 103 % of control and 122 % of control | T/C [17]: 103 % of control and 106 % of control | T/C (dose: 135.0 mg/kg/injection, schedule: Q01DX001 (ip), vehicle: carboxymethylcellulose (CMC)): 106 % of control and 110 % of control | T/C (dose: 300.0 mg/kg/injection, schedule: Q01DX001 (ip), vehicle: carboxymethylcellulose (CMC)): 115 % of control and 120 % of control | T/C [18]: 109 % of control and 116 % of control
